According to patent publication US6858633B1, “Substituted 2-arylbenzazole compounds and their use as antitumour agents” (Cancer Research Technology Limited, priority 1999, dated 2005):
Structures can show the parent of a compound that is named as a salt. Where two headings read alike, the source gives them in different places. Each block holds one compound with its values, some of them ahead of it.

Columns and labels:
MCF-7 = test: In vitro cytotoxicity, 3-day MTT assay, MCF-7; type: cell-based, human; settings: for IC50: 3-day MTT assay
Experimental: (§1) In carrying out the following cytoloxicity assays, the method used corresponds substantially to the following example: • Cells were maintained in a continuous logarithmic culture in RMPI 1640 with L-glutamine medium, supplemented with 10% fetal calf serum, penicillin (100 IU/ml) and streptomycin (100 μg/ml). The cells were mildly trypsinized for passage and for use in assays. • On day one, 180 μl of trypsinized tumour cells (5×10^3 ml^−1) were placed in the wells of 96-well, flat-bottom microtiter plates. Columns 1 and 12 were filled with 300 μl medium to protect from evaporation. The plates were incubated for 24 hours at 37° C. and 5% CO2 in air to allow the cells to adhere and resume exponential growth prior to the addition of drugs. The compounds being tested were dissolved in DMSO and stored as 10 mM stock solutions at 4° C., protected from light. […] 20 μl of drug dilution was added to the other wells with the lowest concentration in column 3 and the highest concentration in column 11. The plates were incubated for 72 hours at 37° C. and 5% CO2 in air. Each compound was tested in triplicate. At the time of drug addition, a plate of untreated cells was read to provide an initial optical density value for use in the calculation of the IC50. • On day five the plates were read. 50 μl MTT (1 mg/ml^−1) was added per well and the plates incubated for a further 4 hours. The MTT is metaboliscd to form a blue formazan product. The MTT solution was aspirattd and 125 μl DMSO:glycine buffer (4:1) was added. The plates were placed on a plate shaker until the fornazan crystals had dissolved and absorbance was ready at 550 nm on a plate reader. • For each compound tested, a dose response curve was obtained and the IC50 statue (drug concentration at 50% inhibition of cell growth) was calculated.
(§2) (n=8) for a range of compounds in relation to MCF-7 and MDA 468 cell lines.

MDA468 = test: In vitro cytotoxicity, 3-day MTT assay, MDA468; type: cell-based
Experimental: as §1, §2

[1] = system: ER positive MCF-7 human breast tumor xenografts; settings: for in vivo growth retardation of MCF-7 xenografts: prodrugs
COLO205 xenografts = test: In vivo COLO205 xenograft study (FIG. 2)
[2] = system: ER negative MT-1 human breast tumor xenografts; settings: for in vivo growth retardation of MT-1 xenografts: prodrugs
sensitive cell lines = test: Biphasic dose-response relationship (second growth phase) in sensitive cell lines; type: cell-based
Excerpt: One feature of the prior art compounds is that they show a biphasic dose-response relationship specifically in sensitive cell lines: cell kill occurs at low nanomolar concentrations of the compounds, followed by a potentially undesirable proliferative response at low micromolar concentrations (termed the “second growth phase”).

[3] = Blood parameters and liver transaminases in xenograft studies; parameters: species or system nude mice; settings: mouse, in vivo
[4] = rats, i.v., typical dose 25 mg/kg
[5] = Stability in plasma in vitro; type: in vitro ADME, rat; settings: hydrochloride salts; rat and other mammalian plasma
[6] = 72 h, asterisked values, IC50 concentration in μM
[7] = surviving mice treated with prodrug

Compound: 7-Fluoro-2-(4′-imino-3′-methylphenyl)benzothiazole [Ih]
IC50 (MCF-7; n=8): 0.00239 µM
IC50 (MDA468; n=8): 0.0103 µM

Compound: Cc1cc(-c2nc3c(F)cccc3s2)ccc1N [Compound Ia]
IC50 (MCF-7; n=8): < 0.0001 µM
IC50 (MDA468; n=8): 0.00013 µM

melting point: 200 to 202 °C
Compound: Cc1cc(-c2nc3cc(I)ccc3s2)ccc1N [Compound Iak, 5-Iodo-2-(4′-amino-3′-methylphenyl)benzothiazole]
IC50 (MCF-7; Homo sapiens, MCF7, 72 h, n=8): 0.493 µM
IC50 (MDA468; [6]): 80.9 µM

Compound: Cc1cc(-c2nc3ccc(F)cc3s2)ccc1NC(=O)C(C)N (centres unmarked) [Iac, 6-Fluoro-2-(4′-amino-3′-Methylphenyl)benzothiazole Alanyl Amide Hydrochloride Salt]
IC50 (MCF-7; n=8): 0.044 µM
IC50 (MDA468; n=8): 0.297 µM

Compound: Cc1cc(-c2nc3ccc(F)cc3s2)ccc1NC(=O)C(N)CCCCN (centres unmarked) [Iae, 6-Fluoro-2-(4′-amino-3′-methylphenyl)benzothiazole Lysyl Amide Dihydrochloride Salt]
IC50 (MCF-7; n=8): 0.147 µM
IC50 (MDA468; n=8): 0.328 µM

Compound: Cc1cc(-c2nc3cc(F)ccc3s2)ccc1NC(=O)C(C)N.Cl (centres unmarked) [Iaf, 5-Fluoro-2-(4′-amino-3′-metbylphenyl)benzothiazole Alanyl Amide Hydrochloride Salt]
IC50 (MCF-7; n=8): 0.00589 µM
IC50 in MCF-7 cells, fold lower than that of other amido prodrugs (MCF-7; compared with other prodrugs): > 5 fold
IC50 (MDA468; n=8): 0.0377 µM

Compound: Cc1cc(-c2nc3cccc(I)c3s2)ccc1N [Ial, 7-Iodo-2-(4′-amino-3′-methylphenyl)benzothiazole]
IC50 (MCF-7; Homo sapiens, MCF7, 72 h, n=8): 0.0283 µM
IC50 (MDA468; 72 h, n=8): 0.323 µM

melting point: 219 to 221 °C
Compound: CC(=O)Nc1ccc(-c2nc3cc(F)ccc3s2)cc1C [Iam, 5-Fluoro-2-(4′-acetamido-3′-methylphenyl)benzothiazole]
IC50 (MCF-7; Homo sapiens, MCF7, 72 h, asterisked values, IC50 concentration in μM): 7.64 µM
IC50 (MDA468; [6]): 5.84 µM

melting point: 268 to 270 °C
Compound: N#Cc1cc(-c2nc3cc(F)ccc3s2)ccc1N [Ian, 5-Fluoro-2-(4′-amino-3′-cyanophenyl)benzothiazole]
IC50 (MCF-7; Homo sapiens, MCF7, 72 h, n=8): < 0.0001 µM
IC50 (MDA468; 72 h, n=8): < 0.0001 µM

melting point: 242 to 245 °C
Compound: Nc1ccc(-c2nc3cc(F)ccc3s2)cc1CO [Iaq, 5-Fluoro-2-(4′-amino-3′-(hydroxymethyl)phenyl)benzothiazole]
IC50 (MCF-7; Homo sapiens, MCF7, 72 h, n=8): < 0.0001 µM
IC50 (MDA468; 72 h, n=8): 0.00043 µM

Compound: Cc1cc(-c2nc3cc(F)c(F)cc3s2)ccc1NC(=O)C(C)N (centres unmarked) [Iar, 5,6-Difluoro-2-(4′-amino-3′-methylphenyl)benzothiazole Alany Amide Hydrochloride Salt]
IC50 (MCF-7; n=8): 0.0331 µM
IC50 (MDA468; n=8): 0.217 µM

Compound: Cc1cc(-c2nc3cc(F)c(F)cc3s2)ccc1NC(=O)C(N)CCCCN (centres unmarked) [Ias, 5,6-Difluoro-2-(4′-amino-3′-methylphenyl)benzothiazole Lysyl Amide Dihydrochloride]
IC50 (MCF-7; n=8): 0.0307 µM
IC50 (MDA468; n=8): 0.302 µM

Compound: Cc1cc(-c2nc3ccc(F)cc3s2)ccc1N [Ib, 6-Fluoro-2-(4′-amino-3′-methylphenyl)benzothiazole]
growth inhibition of MCF-7 xenografts ([1]; given i.p.): Significant growth inhibition
IC50 (MCF-7; Homo sapiens, MCF7, 72 h, n=8): < 0.0001 µM
tumour growth inhibition, COLO205 xenografts (FIG. 2) (COLO205 xenografts): tumour growth inhibition observed
growth inhibition of MT-1 xenografts compared with same dose of (Ik) ([2]; 12.5 mg/kg): more pronounced growth inhibition
tumor growth inhibition in MT-1 xenografts ([2]; dose dependence): dose-dependent tumor growth inhibition
weight loss in MT-1 xenograft study ([2]; dose dependence): weight loss
biphasic dose-response (second growth phase) (sensitive cell lines): the biphasic response is eliminated
blood parameters (white blood cell and platelet counts) and level of liver transaminases [3]: not adversely affected
IC50 (MDA468; 72 h, n=8): 0.00011 µM

Compound: Nc1ccc(-c2nc3c(F)cccc3s2)cc1 [Ic, 4-Fluoro2-(4-aminophenyl)benzothiazole]
IC50 (MCF-7; Homo sapiens, MCF7, 72 h, n=8): 0.00854 µM
IC50 (MDA468; 72 h, n=8): 0.0294 µM

Compound: Nc1ccc(-c2nc3ccc(F)cc3s2)cc1 [Id, 6-Fluoro2-(4′-aminophenyl)benzothiazole]
IC50 (MCF-7; Homo sapiens, MCF7, 72 h, n=8): < 0.0001 µM
IC50 (MDA468; 72 h, n=8): 0.0481 µM

Compound: Cc1cc(-c2nc3c(F)c(F)ccc3s2)ccc1N [Ie, 4,5-Difluoro-2-(4′-amino-3′-methylphenyl)benzothiazole]
IC50 (MCF-7; Homo sapiens, MCF7, 72 h, n=8): 0.00064 µM
IC50 (MDA468; 72 h, n=8): 0.00067 µM

Compound: Cc1cc(-c2nc3c(F)cc(F)cc3s2)ccc1N [If]
IC50 (MCF-7; n=8): < 0.0001 µM
IC50 (MDA468; n=8): 0.00535 µM

Compound: Cc1cc(-c2nc3cc(F)cc(F)c3s2)ccc1N [Ig, 5,7-Difluoro-2-(4′-amino3′-methylphenyl)benzothiazole]
IC50 (MCF-7; Homo sapiens, MCF7, 72 h, n=8): 0.0009 µM
IC50 (MDA468; 72 h, n=8): 0.0044 µM

Compound: Cc1cc(-c2nc3cc(F)c(F)cc3s2)ccc1N [Ii, 5,6-Difluoro-2-(4′-amino-3′-methylphenyl)benzothiazole]
IC50 (MCF-7; Homo sapiens, MCF7, 72 h, n=8): < 0.0001 µM
IC50 (MDA468; 72 h, n=8): 0.00355 µM

Compound: Nc1ccc(-c2nc3cc(F)ccc3s2)cc1 [Il, 5-Fluoro-2-(4′-aminophenyl)benzothiazole]
IC50 (MCF-7; Homo sapiens, MCF7, 72 h, n=8): < 0.0001 µM
IC50 (MDA468; 72 h, n=8): < 0.0001 µM

Compound: Nc1ccc(-c2nc3c(F)cccc3s2)cc1I [Im, 4-Fluoro-2-(4′-amino-3′-iodophenyl)benzothiazole]
IC50 (MCF-7; Homo sapiens, MCF7, 72 h, n=8): 0.00788 µM
IC50 (MDA468; 72 h, n=8): 0.00911 µM

Compound: Nc1ccc(-c2nc3cc(F)ccc3s2)cc1I [In, 5-Fluoro-2-(4′-amino-3′-iodophenyl)benzothiazole]
IC50 (MCF-7; Homo sapiens, MCF7, 72 h, n=8): < 0.0001 µM
IC50 (MDA468; 72 h, n=8): < 0.0001 µM

Compound: Nc1ccc(-c2nc3ccc(F)cc3s2)cc1I [Io, 6-Fluoro-2-(4′-amino-3′-iodophenyl)benzothiazole]
IC50 (MCF-7; Homo sapiens, MCF7, 72 h, n=8): < 0.0001 µM
IC50 (MDA468; 72 h, n=8): < 0.0001 µM

Compound: Nc1ccc(-c2nc3c(F)cccc3s2)cc1Cl [Ip, 4-Fluoro-2-(4′-amino-3′-chlorophenyl)benzothiazole]
IC50 (MCF-7; Homo sapiens, MCF7, 72 h, n=8): 0.00095 µM
IC50 (MDA468; 72 h, n=8): 0.00193 µM

Compound: Nc1ccc(-c2nc3cc(F)ccc3s2)cc1Cl [Iq, 5-Fluoro-2-(4′-amino-3′-chlorophenyl)benzothiazole]
IC50 (MCF-7; Homo sapiens, MCF7, 72 h, n=8): 0.00709 µM
IC50 (MDA468; 72 h, n=8): 0.0189 µM

Compound: Nc1ccc(-c2nc3ccc(F)cc3s2)cc1Cl [Ir, 6-Fluoro-2-(4′-amino3′chlorophenYl)bcnzothiazole]
IC50 (MCF-7; n=8): 0.00408 µM
IC50 (MDA468; n=8): 0.0117 µM

Compound: Nc1ccc(-c2nc3c(F)cccc3s2)cc1Br [Is, 4-Fluoro-2-(4′amino-3′-bromophenyl)benzothiazole]
IC50 (MCF-7; Homo sapiens, MCF7, 72 h, n=8): 0.0382 µM
IC50 (MDA468; 72 h, n=8): 0.024 µM

Compound: Nc1ccc(-c2nc3cc(F)ccc3s2)cc1Br [It, 5-Fluoro-2-(4′-amino-3′-bromophenyl)benzothiazole]
IC50 (MCF-7; Homo sapiens, MCF7, 72 h, n=8): < 0.0001 µM
IC50 (MDA468; 72 h, n=8): 0.0002 µM

Compound: Nc1ccc(-c2nc3ccc(F)cc3s2)cc1Br [Iu, 6-Fluoro2-(4′-amino-3′-bromophenyl)benzothiazole]
IC50 (MCF-7; Homo sapiens, MCF7, 72 h, n=8): 0.0455 µM
IC50 (MDA468; 72 h, n=8): 0.0687 µM

Compound: CC(N)C(=O)Nc1ccc(-c2nc3ccccc3s2)cc1.Cl (centres unmarked) [Iv, 2-(4′-Aminophenyl)benzothiazole Alanyl Amide Hydrochloride Salt]
IC50 (MCF-7; n=8): 0.06 µM
tumour growth inhibition, COLO205 xenografts (FIG. 2) (COLO205 xenografts): tumour growth inhibition observed
IC50 (MDA468; n=8): 0.04 µM

Compound: Cc1cc(-c2nc3ccccc3s2)ccc1NC(=O)C(C)N.Cl (centres unmarked) [Iw, 2-(4′-Amino-3′-methylphenyl)benzothiazole Alanyl Amide Hydrochloride Salt]
growth retardation of MCF-7 xenografts compared with (Iz) ([1]; 12.5 mg/kg given i.v.): greater extent of growth retardation
in vivo growth retardation of MCF-7 xenografts [1]: significant in vivo growth retardation
IC50 (MCF-7; n=8): 0.36 µM
in vivo growth retardation of MT-1 xenografts [2]: significant in vivo growth retardation
tumor growth inhibition in MT-1 xenografts [2, 7]: moderate tumor growth inhibition
removal from plasma and reconversion to parent compound in vivo [4]: readily removed from such plasma and reconverted to their parent compound in vivo
stability in plasma in vitro [5]: stable
IC50 (MDA468; n=8): 0.34 µM

Compound: Cc1cc(-c2nc3ccccc3s2)ccc1NC(=O)C(N)CCCCN.Cl.Cl (centres unmarked) [Iz, 2-(4′-Amino-3′-methylphenyl)benzothiazole Lysyl Amide Dihydrochioride Salt]
body weight loss ([1]; prodrug, dose dependence): Dose-dependent body weight loss
in vivo growth retardation of MCF-7 xenografts [1]: significant in vivo growth retardation
IC50 (MCF-7; n=8): 0.08 µM
in vivo growth retardation of MT-1 xenografts [2]: significant in vivo growth retardation
tumor growth inhibition in MT-1 xenografts [2, 7]: moderate tumor growth inhibition
removal from plasma and reconversion to parent compound in vivo [4]: readily removed from such plasma and reconverted to their parent compound in vivo
stability in plasma in vitro [5]: stable
IC50 (MDA468; n=8): 0.07 µM
